Like-named read-outs stand apart in the source and are kept apart here. Blank lines part the entries; values can stand above or below the compound they belong to.
What was measured:
NTCP [1] = target: T1, NTCP (Homo sapiens, UniProt Q14973); test: Inhibition of [^3H]taurocholate uptake in CHO cells expressing NTCP (competition assay); type: cell-based; details: 1 μM [^3H]TC, 15 min 37°C, Cheng-Prusoff from IC50 and Km, mean ± SD n = 3
T1 construct: host or cells: Chinese Hamster Ovary (CHO) cells
T1 sequence (Q14973 1-349): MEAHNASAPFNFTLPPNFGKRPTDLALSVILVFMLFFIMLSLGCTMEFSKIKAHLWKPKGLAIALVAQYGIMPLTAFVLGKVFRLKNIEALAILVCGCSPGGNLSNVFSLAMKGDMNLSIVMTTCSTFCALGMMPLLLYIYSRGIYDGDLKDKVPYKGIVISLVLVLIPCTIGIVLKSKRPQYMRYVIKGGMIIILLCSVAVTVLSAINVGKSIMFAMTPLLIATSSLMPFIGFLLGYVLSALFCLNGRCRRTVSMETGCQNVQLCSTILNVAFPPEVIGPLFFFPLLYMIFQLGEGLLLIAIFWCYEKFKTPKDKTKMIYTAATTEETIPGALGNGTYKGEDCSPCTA
From the text: Maintenance of these cell cultures was described earlier.

BSEP [2] = target: T2, BSEP (Homo sapiens, UniProt O95342); test: Inhibition of [^3H]TC uptake in BSEP membrane vesicles (efflux assay)
Protocol: All dosing was performed in triplicate. The plates were suspended in a 37°C water bath 1 minute before the incubation. Incubation was started by adding 10 μL of the ATP solution or buffer solution (negative control). Each well contained a final volume of 30 μL and the plates were incubated for 10 minutes at 37°C.
The contents of each well were pipetted in a glass fiber filter plate (Multiscreen HTS plates; Merck Millipore) and washed 3 times with 200 μL ice-cold buffer solution. Finally, 100 μL 0.1 M NaOH was added: lysis of the vesicles took place for 10 minutes at room temperature. An aliquot was used for liquid scintillation counting.

OATP1B1 [3] = target: T3, OATP1B1 (Homo sapiens, UniProt Q9Y6L6)
T3 sequence (Q9Y6L6 1-691): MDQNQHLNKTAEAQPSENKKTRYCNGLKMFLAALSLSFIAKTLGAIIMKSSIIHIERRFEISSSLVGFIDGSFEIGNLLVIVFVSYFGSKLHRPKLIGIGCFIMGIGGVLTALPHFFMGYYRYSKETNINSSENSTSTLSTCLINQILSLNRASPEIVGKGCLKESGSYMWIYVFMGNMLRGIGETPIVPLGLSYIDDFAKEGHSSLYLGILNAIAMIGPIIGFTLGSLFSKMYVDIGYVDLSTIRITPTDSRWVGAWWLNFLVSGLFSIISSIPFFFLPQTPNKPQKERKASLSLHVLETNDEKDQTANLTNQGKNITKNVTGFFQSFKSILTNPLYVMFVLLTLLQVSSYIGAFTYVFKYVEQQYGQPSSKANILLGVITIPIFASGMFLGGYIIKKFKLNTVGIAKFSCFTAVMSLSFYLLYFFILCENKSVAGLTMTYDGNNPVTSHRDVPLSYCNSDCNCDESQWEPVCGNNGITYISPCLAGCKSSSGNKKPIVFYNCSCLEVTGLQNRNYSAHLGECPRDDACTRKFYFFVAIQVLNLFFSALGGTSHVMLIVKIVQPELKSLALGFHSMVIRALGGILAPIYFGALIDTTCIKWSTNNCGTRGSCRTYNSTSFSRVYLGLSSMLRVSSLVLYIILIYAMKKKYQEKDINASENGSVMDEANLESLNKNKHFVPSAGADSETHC
Protocol: (§2) Chinese Hamster Ovary (CHO) and Human Embryonic Kidney (HEK) cells expressing NTCP and OATP1B1, respectively (Solvo Biotechnologies), were used.
(§3) Cells were seeded in 24-well plates at 400,000 cells/well. […] All dosing solutions were formulated in the washing buffer and dosing was executed in triplicate. The incubation was stopped by placing the plates on ice and adding 1 mL ice-cold 1% BSA HBSS-solution. The supernatant was aspirated and the cells were washed twice with 2 mL ice-cold HBSS-solution. NaOH (250 μl, 0.1 M) was added to lyse the cells and the plates were shaken (15 minutes, 37°C). Aliquots of this lysate were subjected to liquid scintillation counting (TriCarb 2900 TR; Perkin Elmer) and protein determination with a BCA-assay (ThermoFisher Scientific).

[4] = LogD determination of the tracers; type: physicochemical
Protocol: (§1) The logD-value, stability (in formulation for use and mouse serum), and identity of the tracer were assessed as described earlier. Radiochemical purity and percentage ^18F-labeling of precursor were determined by radio-TLC (silica gel TLC; with 10% MeOH in CH2Cl2 and 4 : 1 AcN : H2O, resp.).

[5] = Stability of the tracer in formulation for use; type: physicochemical
Protocol: as §1

[6] = Stability of the tracer in mouse serum; type: in vitro ADME
Protocol: as §1

wild-type FVB-mice = test: Dynamic PET/CT imaging of hepatobiliary transport in wild-type FVB-mice; type: in vivo, mouse; details: mouse, in vivo, iv
Protocol: The in vivo transport characteristics of the ^18F labeled bile acids were evaluated in wild-type FVB-mice (female, 5 w). The tracer described earlier, 3β-[^18F]FCA, was also included as a reference standard. Imaging was performed with a PET/CT (FLEX Triumph II small animal PET/CT-scanner; axial field of view: 7.5 cm; 1.3 mm spatial resolution; TriFoil Imaging). For each tracer, three animals were used. The animals were housed and handled in accordance with the European Ethics Committee guidelines and the experiments were approved by the Animal Experimental Ethical Committee of Ghent University (ECD 15/69).
Food and water were provided ad libitum, but the animals were fasted overnight before a PET/CT-scan. They were anesthetized with 1.5 v : v% isoflurane in O2 and placed on a heated bed. To allow injection of the tracer, a polyethylene intravenous line was inserted in the lateral tail vein and fixed. After the animals were transferred to the scanner animal bed, a 1 hour PET-scan was started and 9 MBq tracer was injected directly after starting the scan. Following this PET-scan, 9 MBq [^18F]FDG was injected and twenty minutes later, a second PET-scan with a 20-minute acquisition time was started.
All PET-scans were obtained in list-mode and were iteratively reconstructed (50 iterations). The 1-hour scan was reconstructed in the following frames: 8 × 15 s; 16 × 30 s; 10 × 60 s; 20 × 120 s. For presentation purposes, Maximum Intensity Projection PET/CT images were generated in Amide software. The data were analyzed using Pmod software v3.405 (PMOD Technologies): Regions Of Interest (ROIs) were drawn manually over the liver, gallbladder, and intestines. On the static [^18F]FDG scan, the left ventricle was delineated and this ROI was pasted on the dynamic scan to obtain an image-derived arterial blood concentration. The uptake of radioactivity in liver, gallbladder, and intestines was expressed as a percentage of the injected dose (% ID) and normalized for the weight of a 20 g mouse. The % ID in these organs was monitored in function of time to obtain time-activity curves (TACs). Biliary clearance of the tracers was determined with equation 2 from Ghibellini et al. [14](2) Biliary clearance=cumulative amount of tracer in gallbladder&intestines/AUC blood concentration0→60 min.
The Area Under the Curve (AUC), % ID, and time-to-peak values of the TACs were determined in GraphPad Prism v3.00 Software. The obtained parameters of the different ^18F labeled bile acids were compared to 3β-[^18F]FCA-values in SPSS Statistics 23 Software. Differences between two groups were analyzed with the nonparametric Mann–Whitney U test. A p value ≤ 0.05 was considered significant.

NTCP [7] = target: T1, NTCP; design: method as in PMID 28273180; details: Ki calculated from IC50-values extracted from literature; cited from earlier work
BSEP [8] = target: T2, BSEP; design: purchased Pharmtox; method as in PMID 28273180; details: Ki calculated from IC50-values extracted from literature; cited from earlier work
OATP1B1 [9] = target: T3, OATP1B1; design: host or cells: Human Embryonic Kidney (HEK) cells; method as in PMID 28273180; details: Ki calculated from IC50-values extracted from literature; cited from earlier work
OATP1B1 [10] = target: T3, OATP1B1; test: Inhibition of [^3H]estradiol-17β-glucuronide uptake in HEK cells expressing OATP1B1 (competition assay)
Protocol: as §2, §3

T2 sequence (O95342 whole entry, species assumed): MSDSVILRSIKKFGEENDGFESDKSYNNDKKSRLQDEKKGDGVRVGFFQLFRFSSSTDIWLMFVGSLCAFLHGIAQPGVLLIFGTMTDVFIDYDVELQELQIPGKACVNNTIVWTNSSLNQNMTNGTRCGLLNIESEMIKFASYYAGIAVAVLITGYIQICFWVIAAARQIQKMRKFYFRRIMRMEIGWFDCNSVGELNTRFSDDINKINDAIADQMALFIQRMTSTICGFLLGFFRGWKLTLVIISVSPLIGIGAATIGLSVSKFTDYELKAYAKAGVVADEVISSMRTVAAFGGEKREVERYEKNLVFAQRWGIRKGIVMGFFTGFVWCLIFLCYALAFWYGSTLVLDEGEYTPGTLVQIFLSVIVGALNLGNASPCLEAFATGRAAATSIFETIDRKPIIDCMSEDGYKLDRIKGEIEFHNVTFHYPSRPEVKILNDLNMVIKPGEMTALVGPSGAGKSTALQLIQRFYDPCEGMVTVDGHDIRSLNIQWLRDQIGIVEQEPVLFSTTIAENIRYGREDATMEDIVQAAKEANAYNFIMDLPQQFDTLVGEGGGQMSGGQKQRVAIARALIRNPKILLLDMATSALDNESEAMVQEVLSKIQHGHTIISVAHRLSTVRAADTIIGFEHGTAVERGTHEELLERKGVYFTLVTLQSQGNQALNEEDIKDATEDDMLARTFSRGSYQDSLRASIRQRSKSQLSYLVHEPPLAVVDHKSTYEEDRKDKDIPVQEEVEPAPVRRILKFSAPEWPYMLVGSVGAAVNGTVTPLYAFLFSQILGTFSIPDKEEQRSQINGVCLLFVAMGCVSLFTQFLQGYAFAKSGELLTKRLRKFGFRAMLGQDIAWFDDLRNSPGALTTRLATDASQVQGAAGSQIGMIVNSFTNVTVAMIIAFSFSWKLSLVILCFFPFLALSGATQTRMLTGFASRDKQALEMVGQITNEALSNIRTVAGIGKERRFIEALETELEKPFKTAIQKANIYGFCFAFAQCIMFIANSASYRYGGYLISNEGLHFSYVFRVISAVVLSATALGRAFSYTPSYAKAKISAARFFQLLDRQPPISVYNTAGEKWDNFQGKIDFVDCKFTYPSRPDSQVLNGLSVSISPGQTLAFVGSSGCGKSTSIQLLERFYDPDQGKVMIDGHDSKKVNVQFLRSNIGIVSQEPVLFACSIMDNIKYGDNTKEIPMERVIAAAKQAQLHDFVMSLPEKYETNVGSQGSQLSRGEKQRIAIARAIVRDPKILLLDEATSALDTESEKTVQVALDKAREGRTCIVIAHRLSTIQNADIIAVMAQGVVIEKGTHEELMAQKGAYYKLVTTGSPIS

Ki (NTCP [1]): 2.53 ± 0.76 µM | Ki (OATP1B1 [3]): 5.22 ± 0.56 µM
Structure (SMILES): C[C@H](CCC(=O)O)[C@H]1CC[C@H]2[C@@H]3[C@H](O)C[C@@H]4C[C@H](F)CC[C@]4(C)[C@H]3C[C@H](O)[C@]12C [3αFCA, 3α-fluorocholic acid]
Ki (BSEP [2]): 199 ± 39.5 µM

Structure (SMILES): C[C@H](CCC(=O)NCC(=O)O)[C@H]1CC[C@H]2[C@@H]3[C@H](O)C[C@@H]4C[C@@H]([18F])CC[C@]4(C)[C@H]3C[C@H](O)[C@]12C [3β-[^18F]FGCA, 3β-[^18F]fluoroglycocholic acid]
logD [4]: 0.011 ± 0.037 | Stability in its formulation [5]: stable | Stability in mouse serum [6]: stable | Biliary clearance (wild-type FVB-mice; female, FVB, 9 MBq): 0.47 ± 0.07 mL/min | Injected activity found in gallbladder and intestines after 1 hour (wild-type FVB-mice; female, FVB, 1 h): approx. 80% | Organ uptake after intravenous injection (wild-type FVB-mice): exclusive hepatic uptake

Structure (SMILES): C[C@H](CCC(=O)NCC(=O)O)[C@H]1CC[C@H]2[C@@H]3[C@H](O)C[C@@H]4C[C@@H](F)CC[C@]4(C)[C@H]3C[C@H](O)[C@]12C [3βFGCA, 3β F glycocholic acid]
Ki (NTCP [1]): 1.09 ± 0.34 µM | Ki (BSEP [2]): 87.4 ± 14.6 µM | Ki (OATP1B1 [3]): 4.24 ± 0.16 µM

Structure (SMILES): C[C@H](CCC(=O)O)[C@H]1CC[C@H]2[C@@H]3[C@H](O)C[C@@H]4C[C@@H](F)CC[C@]4(C)[C@H]3C[C@H](O)[C@]12C [3βFCA]
Ki (NTCP [7]): 6.18 ± 0.59 µM | Ki (BSEP [8]): 216 ± 53 µM | Ki (OATP1B1 [9]): 9.67 ± 0.83 µM

Structure (SMILES): C[C@H](CCC(=O)O)[C@H]1CC[C@H]2[C@@H]3[C@H](O)C[C@@H]4C[C@H](O)CC[C@]4(C)[C@H]3C[C@@H](F)[C@]12C [12βFCA]
Ki (NTCP [1]): 30.1 ± 9.4 µM | Ki (BSEP [2]; read-out: Ki for BSEP, BSEP membrane vesicles, 0.65 μM [^3H]TC, 10 min 37°C, Cheng-Prusoff from IC50 and Km, mean ± SD n = 3): 367 ± 38.1 µM | Ki (OATP1B1 [3]): 4.56 ± 0.25 µM

Structure (SMILES): C[C@]12CC[C@@H]3c4ccc(O)cc4CC[C@H]3[C@@H]1CC[C@@H]2O[C@@H]1O[C@H](C(=O)O)[C@@H](O)[C@H](O)[C@H]1O [[^3H]EbG, [^3H]estradiol-17β-glucuronide]
Vmax of substrate uptake (OATP1B1 [10]; 0–150 μM, 10 min 37°C): 146.4 ± 5.52 pmol/min·mg protein | Km (OATP1B1 [10]; read-out: Km (Michaelis-Menten) of substrate uptake, 0–150 μM, 10 min 37°C): 11.7 ± 1.59 µM
